Legend:
[1] = test system: BxPC3; test: XTT cell viability assay, BxPC3; format: cell-based, human; settings: 48 hours, TGFβ1 0.02 ng/ml, NT-S100A8 50 nM, S100A8 10 nM, S100A9 10 nM, alone or combined, at least three independent experiments in quadruplicate
Protocol: (§1) BxPC3, Capan1, MiaPaCa2, Panc1 and BxPC3-SMAD4+ cells were seeded (2000 cells per well) in 96-well cell culture plates and cultured in complete media for 24 hours. Media were then replaced with fresh cell culture media in absence (control) or in presence of TGFβ1 (0.02 ng/ml) and NT-S100A8 (50 nM), alone or combined or in absence (control) or in presence of TGFβ1 (0.02 ng/ml), S100A8 (10 nM) and S100A9 (10 nM) alone or combined. Cell growth was assessed after 48 hours using the XTT cell viability test (Roche, Milano, Italy). At least three independent experiements, each made in quadruplicate, were run. The results were expressed as percentage with respect to the median Abs450nm of control cells run in the same experimental set.

[2] = test system: Capan1; test: XTT cell viability assay, Capan1; format: cell-based, human; settings: 48 hours, TGFβ1 0.02 ng/ml, NT-S100A8 50 nM, S100A8 10 nM, S100A9 10 nM, alone or combined, at least three independent experiments in quadruplicate
Protocol: as §1

[3] = test system: BxPC3 [Ca2+]i; test: Intracellular calcium, fluo-4 epifluorescence, BxPC3; format: cell-based, human; settings: for alterations in [Ca2+]i: BxPC3, single treatment, monitored for 500 seconds, 0.02 ng/ml TGFβ1, 10 nM S100A8, 10 nM S100A9
Protocol: (§2) BxPC3 and MiaPaCa2 cells, seeded (80 × 10^3 cells) on coverslips that had been inserted within each well of six well culture plates, were kept in their respective complete media for 24 hours. Coverslips were then incubated for 10 min at 37°C with 3 μM fluo-4 AM (Invitrogen S.R.L.) in an imaging buffer containing 137 mM NaCl, 5 mM KCl, 1.2 mM MgCl2, 0.44 mM KH2PO4, 4.2 mM NaHCO3, 5 mM glucose, and 20 mM HEPES pH 7.4. The cells were carefully washed with the imaging buffer after its removal. Calcium oscillations were then analyzed by means of an inverted epifluorescence microscope equipped with a top stage incubator (Tokai Hit INU-F1, Tokai Hit, Shizuoka-Ken, Japan) in order to keep cells in the optimal culturing environment. As an illumination source, we used a mercury arc discharge lamp and selected excitation and emission wavelengths with an FITC filter cube (EX 465–495 DM505 EM 515–555 nm). Use was made of an 60X1.45NA objective (Nikon Instruments S.P.A., Firenze, Italy) and, in order to minimize phototoxicity and photobleaching, a back-thinned electron multiplied CCD camera C9100-13 Imagem (Hamamatsu Photonics Italia S.R.L., Milano, Italy). After the first minute, required to achieve optimal culture conditions, intracellular fluorescence was continuously monitored (3 frames/sec) for 12 min. In all experiments, […], the cells were maintained in imaging buffer for the first 2 minutes, after which they were stimulated with 10 nM S100A8, 10 nM S100A9 and 50 nM NT-S100A8, alone or in combination with 0.02 ng/ml TGFβ1. For all stimuli, additions were made directly to the microscope chamber without interrupting the recording. The fluorescence signal was quantified by measuring the mean pixel value of a manually selected cellular area for each frame of the image stack using the HCimage system (Hamamatsu Photonics Italia S.R.L.). For all the experimental conditions, at least 3 independents sets of experiments were performed.

[4] = test system: MiaPaCa2 [Ca2+]i; test: Intracellular calcium, fluo-4 epifluorescence, MiaPaCa2; format: cell-based, human; settings: for [Ca2+]i variation per minute per cell: MiaPaCa2, 200 to 480 second interval, vs control cells, One-Way ANOVA, Bonferroni; for effect on the [Ca2+]i decrement induced by TGFβ1: MiaPaCa2, combined with 0.02 ng/ml TGFβ1, 200 to 480 second interval
Protocol: as §2

[5] = target: T1, TGFβ1 (Homo sapiens, UniProt P01137); test: Molecular interactions by MALDI-TOF/MS and co-immunoprecipitation; format: binding; settings: for co-immunoprecipitation with TGFβ1: 1.6 μM equimolar with CaCl2, 37°C overnight, IP anti-S100A8 or anti-S100A9, WB TGFβ1; for homo-oligomer formation: 11.3 μM with Ca2+; for homo-oligomer formation / hetero-dimer formation with TGFβ1: overnight, MALDI-TOF/MS; for hetero-dimer formation with TGFβ1: 1:1 molar ratio (11.3 μM) with Ca2+
T1 construct: purchased ProSpec-Tany TechnoGene
Protocol: Co-immunoprecipitation experiments were performed using protein G-Sepharose (GE Healthcare Technologies). TGFβ1 (1.6 μM) was incubated in equimolar concentrations with S100A8 or S100A9 at 37°C overnight in the presence of equimolar CaCl2. The mixtures were then incubated for 2 h with anti-S100A8 polyclonal or anti-S100A9 monoclonal antibodies (Santa Cruz Biotechnology) preadsorbed to protein G. Immunoprecipitates, washed three times in 10 mM Tris HCl containing 40 mM NaCl, pH 7.5, were boiled in an SDS-PAGE sample buffer before electrophoresis on 4–12% NuPAGE®NovexBis-Tris SDS–PAGE gels. After protein transfer, nitrocellulose membranes were blotted with anti-TGFβ1 antibody (Cell Signaling Technology).
S100A8, S100A9 and TGFβ1 and calcium ions (CaCl2) were mixed at an equimolar concentration (11.3 μM) in an aqueous solution. Each mixture was incubated overnight at 37°C prior to MALDI-TOF/MS analysis. S100A8, S100A9 and TGFβ1 mixtures were diluted 1/10 in 50 μL of 0.1% TFA aqueous solution, after which 5 microliters of each dilution were added to 5 μl of Sinapinic acid (SA); 1 μl of the resulting mixture was deposited in duplicate on the steel sample holder and allowed to dry. External mass calibration (Protein Calibration Standard II, BrukerDaltonics) was based on monoisotopic values of [M + H] + of Trypsinogen, Protein A, Albumin-Bovine (BSA), at m/z 23982, 44613, 66500, respectively. MALDI-TOF/MS measurements were performed using an Ultraflex II MALDI-TOF instrument (BrukerDaltonics), operating in linear positive ion mode. Ions were formed using a pulsed UV laser (λ = 337 nm) beam. The instrumental conditions were: IS1 = 25 kV; IS2 = 23.35 kV; delay time = 70 nsec. All chemicals and solvents were purchased from Sigma-Aldrich (Sigma Aldrich). One spectrum was collected for each sample, an average of 1,000 laser shots being obtained from the respective two replicate spots.

T1 sequence (P01137 279-390 limits assumed): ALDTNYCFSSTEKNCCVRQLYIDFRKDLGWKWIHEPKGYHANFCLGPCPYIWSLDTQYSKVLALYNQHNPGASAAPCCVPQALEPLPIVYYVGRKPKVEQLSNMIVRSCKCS

Substance | BxPC3 % to Control Mean±SEM [1] | Capan1 % to Control Mean± SEM [2] | alterations in [Ca2+]i [3] | [Ca2+]i variation per minute per cell [4] | effect on the [Ca2+]i decrement induced by TGFβ1 [4] | co-immunoprecipitation with TGFβ1 [5] | homo-oligomer formation [5] | hetero-dimer formation with TGFβ1 [5] | effect of TGFβ1 on the induced [Ca2+]i oscillations ([3]; BxPC3, combination with 0.02 ng/ml TGFβ1)
S100A8: inflammatory calcium binding protein S100A8 (ProSpec-Tany TechnoGene) | 111.45±5.92 % to Control | 96.22 ± 2.91 % to Control | did not determine evident alterations in [Ca^2+]i | significant decrement of [Ca^2+]i | partly counteracted | TGFβ1 was detected | formed homo-dimers | formed hetero-dimers not only between themselves, but also with TGFβ1 | –
TGFβ1: transforming growth factor beta 1 (ProSpec-Tany TechnoGene) | 96.85 ± 5.02 % to Control | 104.31 ± 2.68 % to Control | did not determine evident alterations in [Ca^2+]i | significant decrement of [Ca^2+]i | – | – | formed homo-dimers and homo-trimers | – | –
S100A9: inflammatory calcium binding protein S100A9, S100A8 binding partner | 103.53± 5.18 % to Control | 103.07 ± 2.90 % to Control | did not determine evident alterations in [Ca^2+]i | – | completely reverted | TGFβ1 was detected | formed homo-dimers and homo-trimers | formed hetero-dimers not only between themselves, but also with TGFβ1 | –
NT-S100A8: 14 N-terminal aminoacid peptide of S100A8, isolated from PDAC tissues (MLTELEKALNSIID; UniProt P05109 1-14, looked up, fragment) | – | – | – | significant decrement of [Ca^2+]i | – | – | – | – | synergized and accelerated by TGFβ1
